Results reported in patent US20230365556A1, “N-ACYL AMINO ACID COMPOUNDS AND METHODS OF USE” (Pliant Therapeutics, Inc., priority 2016, published 2023).
Where a name gives a salt, the structure may show the parent alone.

Target: αvβ1 integrin (αvβ1 expressing CHO cells) (Homo sapiens (Human), UniProt P05556+P06756)
Test: Cell adhesion assay: inhibition of αvβ1 expressing CHO cells attaching to TGFβ1LAP
Type: cell-based
Details: 1 h at 37° C., crystal violet absorbance 595 nm, read-out: αvβ1 Inhibition IC50 (nM)-range
Description: Example B1—Cell Adhesion Assay
In order to determine the potency, the compounds were assessed for their ability to inhibit αvβ1 expressing CHO cells attach to TGFβ1LAP. Microplates were coated overnight with 2 ug/ml TGFβ1LAP at 4° C., and blocked with 2% BSA/PBS for 30 min before the assay. Cells were detached and washed in PBS. After that the cells were resuspended in DMEM at 1.0×10^6 cells/ml, fifty microliter of cell suspension and fifty microliter of compound solution were added into the plate. The plates were incubated for one hour at 37° C. in humidified 5% carbon dioxide. Non-adherent cells were removed by centrifugation top side down at 58 g for 5 min. The attached cells were fixed and stained with 0.5% crystal violet (in 20% methanol and 1% formaldehyde) and the wells washed with PBS. Crystal violet was dissolved in 2% Triton-X in PBS. The relative number of cells in each well was evaluated by the absorbance at 595 nm in a microplate reader (Tecan). IC50 values were determined by non-linear regression with four parameters (Graphpad Prism 7.01, Y=Bottom+(Top−Bottom)/(1+10^((Log IC50−X)*HillSlope)).
The compounds tested were compound samples prepared according to procedures described in the Synthetic Examples section, with the stereochemical purity as indicated in the Examples indicated for Example or Compound No. 1-62. The compounds tested were predominantly S-configuration at the alpha carbon of the amino acid scaffold, except for compounds 123, 124, and 125 which were predominantly R-configuration at the alpha carbon of the amino acid scaffold. “Example or Compound No.” in Table B-1 refers to the compound illustrated in the examples for Example or Compound Nos. 1-62 (the compounds of Examples 1-62 are labeled as Compounds 1-62 in Table 1). “Example or Compound No.” in Table B-1 refers to the compound number as indicated in Table 1 or Table 2 for Example or Compound Nos. 63-126.

αvβ1 integrin (αvβ1 expressing CHO cells), sequence (P06756 31-889): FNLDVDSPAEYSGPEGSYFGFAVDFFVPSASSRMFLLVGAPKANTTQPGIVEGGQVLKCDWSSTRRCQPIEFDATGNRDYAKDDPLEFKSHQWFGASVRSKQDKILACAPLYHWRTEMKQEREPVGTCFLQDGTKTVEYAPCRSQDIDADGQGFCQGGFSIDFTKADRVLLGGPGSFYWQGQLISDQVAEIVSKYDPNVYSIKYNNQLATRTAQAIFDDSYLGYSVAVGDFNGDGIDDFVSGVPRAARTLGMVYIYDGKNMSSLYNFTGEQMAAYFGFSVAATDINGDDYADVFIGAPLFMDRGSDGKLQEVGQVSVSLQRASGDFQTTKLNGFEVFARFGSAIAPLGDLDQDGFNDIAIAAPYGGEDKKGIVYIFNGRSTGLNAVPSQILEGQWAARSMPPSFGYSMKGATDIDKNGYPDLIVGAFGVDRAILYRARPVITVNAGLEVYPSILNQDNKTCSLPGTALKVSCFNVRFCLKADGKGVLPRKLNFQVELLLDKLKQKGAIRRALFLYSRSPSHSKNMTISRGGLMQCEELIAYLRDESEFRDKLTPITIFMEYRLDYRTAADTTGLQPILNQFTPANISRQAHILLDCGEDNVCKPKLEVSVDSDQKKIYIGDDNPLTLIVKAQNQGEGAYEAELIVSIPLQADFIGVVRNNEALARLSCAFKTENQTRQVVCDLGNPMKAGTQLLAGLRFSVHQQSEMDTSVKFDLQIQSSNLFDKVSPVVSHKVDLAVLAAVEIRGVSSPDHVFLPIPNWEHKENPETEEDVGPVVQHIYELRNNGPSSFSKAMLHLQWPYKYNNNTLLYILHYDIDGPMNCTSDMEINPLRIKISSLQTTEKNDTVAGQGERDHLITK
αvβ1 integrin (αvβ1 expressing CHO cells), sequence (P06756 891-1048 partner): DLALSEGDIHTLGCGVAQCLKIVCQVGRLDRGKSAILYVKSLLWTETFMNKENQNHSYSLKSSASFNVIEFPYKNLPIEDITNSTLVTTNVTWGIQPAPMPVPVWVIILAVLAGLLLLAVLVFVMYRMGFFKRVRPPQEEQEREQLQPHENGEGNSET
αvβ1 integrin (αvβ1 expressing CHO cells), sequence (P05556 21-798): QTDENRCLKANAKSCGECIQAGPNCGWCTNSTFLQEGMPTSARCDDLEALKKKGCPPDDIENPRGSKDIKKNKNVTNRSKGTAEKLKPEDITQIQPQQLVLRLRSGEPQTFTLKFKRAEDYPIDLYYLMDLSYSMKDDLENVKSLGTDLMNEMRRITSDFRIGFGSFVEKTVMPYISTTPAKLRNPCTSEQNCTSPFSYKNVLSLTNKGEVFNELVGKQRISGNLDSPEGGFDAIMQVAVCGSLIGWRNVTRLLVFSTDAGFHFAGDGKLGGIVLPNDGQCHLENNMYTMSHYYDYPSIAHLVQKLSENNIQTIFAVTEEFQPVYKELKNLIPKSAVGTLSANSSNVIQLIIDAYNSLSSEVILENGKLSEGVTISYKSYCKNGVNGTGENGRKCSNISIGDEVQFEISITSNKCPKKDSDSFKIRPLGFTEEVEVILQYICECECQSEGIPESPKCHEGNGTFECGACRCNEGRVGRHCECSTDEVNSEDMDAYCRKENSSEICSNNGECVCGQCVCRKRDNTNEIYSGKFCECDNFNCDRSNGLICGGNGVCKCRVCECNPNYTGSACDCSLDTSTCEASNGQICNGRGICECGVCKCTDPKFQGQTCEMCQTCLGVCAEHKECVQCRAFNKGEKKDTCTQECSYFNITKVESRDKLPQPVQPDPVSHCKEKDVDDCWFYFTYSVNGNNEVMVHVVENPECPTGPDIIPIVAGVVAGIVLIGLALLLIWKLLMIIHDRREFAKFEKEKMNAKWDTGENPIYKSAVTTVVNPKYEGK

Row | IC50 [nM] | Compound
1 | < 50 | Cn1cnc2ccc(C(=O)N[C@@H](Cc3ccc(OCCCc4ccc5c(n4)NCCC5)cc3)C(=O)O)cc21 [Example 2, (S)-2-(1-methyl-1H-benzo[d]imidazole-6-carboxamido)-3-(4-(3-(5,6,7,8-tetrahydro-1,8-naphthyridin-2-yl)propoxy)phenyl)propanoic acid]
2 | < 50 | Cn1cc2cc(C(=O)N[C@@H](Cc3ccc(OCCCc4ccc5c(n4)NCCC5)cc3)C(=O)O)ccc2n1 [Example 45, (2S)-2-[(2-methylindazole-5-carbonyl)amino]-3-[4-[3-(5,6,7,8-tetrahydro-1,8-naphthyridin-2-yl)propoxy]phenyl]propanoic acid]
3 | 50 to 250 | Cn1ncc2cc(C(=O)NC(CCCCCCCc3ccc4c(n3)NCCC4)C(=O)O)ccc21 (centres unmarked) [Compound 82, 2-(1-methyl-1H-indazole-5-carboxamido)-9-(5,6,7,8-tetrahydro-1,8-naphthyridin-2-yl)nonanoic acid]
4 | < 50 | O=C(N[C@@H](Cc1ccc(OCCCc2ccc3c(n2)NCCC3)cc1)C(=O)O)c1c(Cl)cncc1Cl [Example 15, (S)-2-(3,5-dichloroisonicotinamido)-3-(4-(3-(5,6,7,8-tetrahydro-1,8-naphthyridin-2-yl)propoxy)phenyl)propanoic acid]
5 | < 50 | O=CNc1cc(C(=O)N[C@@H](Cc2ccc(OCCCc3ccc4c(n3)NCCC4)cc2)C(=O)O)ccc1O [Example 12, (S)-2-(3-formamido-4-hydroxybenzamido)-3-(4-(3-(5,6,7,8-tetrahydro-1,8-naphthyridin-2-yl)propoxy)phenyl)propanoic acid]
6 | 250 to 1000 | O=C(NC(CN1CC(OCCCc2ccc3c(n2)NCCC3)C1)C(=O)O)c1c(Cl)cccc1Cl (centres unmarked) [Compound 74, 2-(2,6-dichlorobenzamido)-3-(3-(3-(5,6,7,8-tetrahydro-1,8-naphthyridin-2-yl)propoxy)azetidin-1-yl)propanoic acid]
7 | 250 to 1000 | O=C(N[C@@H](Cc1ccc(COCCCNc2ccccn2)cc1)C(=O)O)c1c(Cl)cccc1Cl [Example 30, (S)-2-(2,6-dichlorobenzamido)-3-(4-((3-(pyridin-2-ylamino)propoxy)methyl)phenyl) propanoic acid trifluoroacetate]
8 | < 50 | O=C(N[C@@H](Cc1ccc(OCCCc2ccc3c(n2)NCCC3)cc1)C(=O)O)c1c(F)cccc1F [Example 7, (S)-2-(2,6-difluorobenzamido)-3-(4-(3-(5,6,7,8-tetrahydro-1,8-naphthyridin-2-yl)propoxy)phenyl)propanoic acid]
9 | < 50 | O=C(N[C@@H](Cc1ccc(OCCCc2ccc3c(n2)NCCC3)cc1)C(=O)O)c1c(F)cccc1C(F)(F)F [Example 6, (S)-2-(2-fluoro-6-(trifluoromethyl)benzamido)-3-(4-(3-(5,6,7,8-tetrahydro-1,8-naphthyridin-2-yl)propoxy)phenyl)propanoic acid]
10 | < 50 | N#Cc1ccc(Cl)c(C(=O)N[C@@H](CCCCCCCc2ccc3c(n2)NCCC3)C(=O)O)c1 [Compound 100]
11 | > 1000 | O=C(N[C@@H](CCCCCCCCNC1=NCCNC1)C(=O)O)c1c(Cl)cccc1Cl [Example 47, (S)-2-(2,6-dichlorobenzamido)-10-((3,4,5,6-tetrahydropyrazin-2-yl)amino)decanoic acid]
12 | 250 to 1000 | O=C(N[C@@H](CCCCCCCc1ccc2c(n1)NCCC2)C(=O)O)c1ccc2cnn(C(F)F)c2c1 [Compound 105]
13 | < 50 | O=C(N[C@@H](Cc1ccc(OCCCc2ccc3c(n2)NCCC3)cc1)C(=O)O)c1ccc2cn[nH]c2c1 [Example 40, (2S)-2-(1H-indazole-6-carbonylamino)-3-[4-[3-(5,6,7,8-tetrahydro-1,8-naphthyridin-2-yl)propoxy]phenyl]propanoic acid]
14 | < 50 | O=C(N[C@@H](Cc1ccc(OCCCc2ccc3c(n2)NCCC3)cc1)C(=O)O)c1ccc2ocnc2c1 [Example 10, (S)-2-(benzo[d]oxazole-5-carboxamido)-3-(4-(3-(5,6,7,8-tetrahydro-1,8-naphthyridin-2-yl)propoxy)phenyl)propanoic acid]
15 | 50 to 250 | O=C(N[C@@H](Cc1ccc(OCC2(CNc3ccccn3)CC2)cc1)C(=O)O)c1c(Cl)cccc1Cl [Example 46, (2S)-2-((2,6-dichlorobenzoyl)amino)-3-(4-((1-((2-pyridylamino)methyl)cyclopropyl)methoxy)phenyl)propanoic acid]
16 | < 50 | O=C(N[C@@H](Cc1ccc(OCCCc2ccc3c(n2)NCCC3)cc1)C(=O)O)c1cc(Cl)cc(Cl)c1 [Example 35, (2S)-2-[(3,5-dichlorobenzoyl)amino]-3-[4-[3-(5,6,7,8-tetrahydro-1,8-naphthyridin-2-yl)propoxy]phenyl]propanoic acid]
17 | 250 to 1000 | Cn1ncc2c(C(=O)N[C@@H](CCCCCCCc3ccc4c(n3)NCCC4)C(=O)O)cccc21 [Compound 115]
18 | < 50 | O=C(N[C@@H](Cc1ccc(COCCc2ccc3c(n2)NCCC3)cc1)C(=O)O)c1c(Cl)cccc1Cl [Example 29, (S)-2-(2,6-dichlorobenzamido)-3-(4-((2-(5,6,7,8-tetrahydro-1,8-naphthyridin-2-yl)ethoxy)methyl)phenyl)propanoic acid trifluoroacetate]
19 | 50 to 250 | O=C(N[C@@H](CCCCCCCCNC1=NCCS1)C(=O)O)c1c(Cl)cccc1Cl [Example 49, (S)-2-(2,6-dichlorobenzamido)-10-((4,5-dihydrothiazol-2-yl)amino)decanoic acid]
20 | 50 to 250 | O=C(N[C@@H](CCCCCCCc1ccc2c(n1)NCCC2)C(=O)O)c1ccc2[nH]ncc2c1 [Compound 103]
21 | < 50 | Cn1ncc2ccc(C(=O)N[C@@H](Cc3ccc(OCCCc4ccc5c(n4)NCCC5)cc3)C(=O)O)cc21 [Example 41, (2S)-2-[(1-methylindazole-6-carbonyl)amino]-3-[4-[3-(5,6,7,8-tetrahydro-1,8-naphthyridin-2-yl)propoxy]phenyl]propanoic acid]
22 | 50 to 250 | Cn1cc2cc(C(=O)N[C@@H](CCCCCCCc3ccc4c(n3)NCCC4)C(=O)O)ccc2n1 [Compound 109]
23 | < 50 | O=C(N[C@@H](Cc1ccc(OCCCc2ccc3c(n2)NCCC3)cc1)C(=O)O)c1ccncc1 [Example 13, (S)-2-(isonicotinamido)-3-(4-(3-(5,6,7,8-tetrahydro-1,8-naphthyridin-2-yl)propoxy)phenyl)propanoic acid]

Row | Compound | IC50 [nM]
24 | O=C(N[C@@H](Cc1ccc(OCCCCNC2=NCCS2)cc1)C(=O)O)c1c(Cl)cccc1Cl [Example 62, (S)-2-(2,6-dichlorobenzamido)-3-(4-(4-((4,5-dihydrothiazol-2-yl)amino)butoxy)phenyl)propanoic acid] | < 50
25 | CN1CCN=C(NCCCCOc2ccc(C[C@H](NC(=O)c3c(Cl)cccc3Cl)C(=O)O)cc2)C1=O [Example 17, (S)-2-(2,6-dichlorobenzamido)-3-(4-(4-((4-methyl-3-oxo-3,4,5,6-tetrahydropyrazin-2-yl)amino)butoxy)phenyl)propanoic acid] | > 1000
26 | CC(=O)N1CCN=C(NCCCCOc2ccc(C[C@H](NC(=O)c3c(Cl)cccc3Cl)C(=O)O)cc2)C1 [Example 55, (S)-3-(4-(4-((4-acetyl-3,4,5,6-tetrahydropyrazin-2-yl)amino)butoxy)phenyl)-2-(2,6-dichlorobenzamido)propanoic acid] | 50 to 250
